Key:
Experiment in all cases: relative viability (nuclei count vs DMSO), 5 days (fraction); higher = more cells survive
CX-5461 + Olaparib = compound: Cc1cnc(CNC(=O)c2c(=O)c3ccc(N4CCCN(C)CC4)nc3n3c2sc2ccccc23)cn1 [CX-5461] + O=C(c1cc(Cc2n[nH]c(=O)c3ccccc23)ccc1F)N1CCN(C(=O)C2CC2)CC1 [Olaparib] (partner 8 µM)
Outline: (§1)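 Values are medians from duplicate plates. Each reflects relative viability, defined as the nuclei count of treated wells over that of vehicle wells. Lung cancer cell lines in 1536-well plates were pin-tool dosed one day after seeding with one drug alone or with a fixed anchor-drug dose plus five library-drug doses (not always all listed) in √10 steps, then fixed, stained and imaged at 4× after 5 days.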

CX-5461 + Pemetrexed = compound: Cc1cnc(CNC(=O)c2c(=O)c3ccc(N4CCCN(C)CC4)nc3n3c2sc2ccccc23)cn1 [CX-5461] + Nc1nc2[nH]cc(CCc3ccc(C(=O)N[C@@H](CCC(=O)O)C(=O)O)cc3)c2c(=O)[nH]1 [Pemetrexed] (partner 0.2 µM)
Outline: as §1

IMD-0354 + Vorinostat = compound: O=C(Nc1cc(C(F)(F)F)cc(C(F)(F)F)c1)c1cc(Cl)ccc1O [IMD-0354] + O=C(CCCCCCC(=O)Nc1ccccc1)NO [Vorinostat] (partner 1 µM)
Outline: as §1

IMD-0354 + Pictilisib = compound: O=C(Nc1cc(C(F)(F)F)cc(C(F)(F)F)c1)c1cc(Cl)ccc1O [IMD-0354] + CS(=O)(=O)N1CCN(Cc2cc3nc(-c4cccc5[nH]ncc45)nc(N4CCOCC4)c3s2)CC1 [Pictilisib] (partner 1 µM)
Outline: as §1

Cell Line | relative viability (CX-5461 + Olaparib; first compound 0.01 µM) | relative viability (CX-5461 + Olaparib; first compound 0.03162 µM) | relative viability (CX-5461 + Olaparib; first compound 0.1 µM) | relative viability (CX-5461 + Olaparib; first compound 0.3162 µM) | relative viability (CX-5461 + Olaparib; first compound 1 µM) | relative viability (CX-5461 + Pemetrexed; first compound 0.01 µM) | relative viability (CX-5461 + Pemetrexed; first compound 0.03162 µM) | relative viability (CX-5461 + Pemetrexed; first compound 0.1 µM) | relative viability (CX-5461 + Pemetrexed; first compound 0.3162 µM) | relative viability (CX-5461 + Pemetrexed; first compound 1 µM) | relative viability (IMD-0354 + Vorinostat; first compound 0.04 µM) | relative viability (IMD-0354 + Vorinostat; first compound 0.1265 µM) | relative viability (IMD-0354 + Vorinostat; first compound 0.4 µM) | relative viability (IMD-0354 + Vorinostat; first compound 1.265 µM) | relative viability (IMD-0354 + Vorinostat; first compound 4 µM) | relative viability (IMD-0354 + Pictilisib; first compound 0.04 µM) | relative viability (IMD-0354 + Pictilisib; first compound 0.1265 µM) | relative viability (IMD-0354 + Pictilisib; first compound 0.4 µM) | relative viability (IMD-0354 + Pictilisib; first compound 1.265 µM) | relative viability (IMD-0354 + Pictilisib; first compound 4 µM)
HCC-78 | 0.977 | 0.856 | 0.949 | 0.816 | 0.738 | 0.896 | 0.939 | 0.904 | 0.907 | 0.862 | 0.406 | 0.378 | 0.405 | 0.407 | 0.31 | 0.179 | 0.204 | 0.207 | 0.095 | 0.126
HCC-366 | 0.444 | 0.444 | 0.429 | 0.315 | 0.273 | 0.196 | 0.172 | 0.179 | 0.197 | 0.149 | 0.314 | 0.439 | 0.206 | 0.165 | 0.0652 | 0.16 | 0.193 | 0.168 | 0.148 | 0.0681
HCC-827 | 0.703 | 0.69 | 0.767 | 0.644 | 0.611 | 0.292 | 0.253 | 0.268 | 0.225 | 0.331 | 0.86 | 0.841 | 0.706 | 0.264 | 0.29 | 1.03 | 0.795 | 0.691 | 0.66 | 0.337
HOP-62 | 0.315 | 0.355 | 0.287 |  | 0.254 | 0.236 | 0.384 | 0.297 | 0.28 | 0.321 | 0.573 | 0.577 | 0.417 | 0.193 | 0.109 | 0.958 | 0.804 | 0.346 | 0.237 | 0.0877

Reference: the supplement of paper PMC10307832
